The data set is described as follows: gradient 5% acetonitrile 3 min, to 50% in 2 min, to 85% in 15 min, held 3 min, 100 µL/min. The following applies: column: Zorbax Extend-C18 2.1 x 50 mm; eluents: water / acetonitrile, 0.1% formic acid. Put shortly: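 Pure standards were analyzed in mixtures of ~100 molecules using HPLC coupled to a quadrupole time-of-flight mass spectrometer, in both positive and negative ionization mode. Separation used a Zorbax Extend-C18 column (2.1 × 50 mm, 1.8 μm) at 100 μL/min, with water and acetonitrile each containing 0.1% formic acid. Dead and dwell volumes were 40 μL and 900 μL, and data were collected over 3 months. Retention time was read from computationally picked adduct peaks, each inspected manually.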
In the case of `COc1cc(=O)oc(/C=C/C=C/C=C/C(C)=C/C2(C)OC(C)C(C)(O)C2O)c1C` (stereo unspecified), the RP-LC retention time came out at 846 s.
`Cc1ccsc1C(=O)N1C[C@@H](F)C[C@H]1C(=O)N1CCCCC1`: the RP-LC retention time stood at 695 s.
Turning to `CCCNS(=O)(=O)c1cc2n(c1)CCCN(CC)C2=O`, the RP-LC retention time was determined as 642 s.
The compound `O=C1C2C=CC=CC2=NC(=S)N1CCN1CCC(=C(c2ccc(F)cc2)c2ccc(F)cc2)CC1` (stereo unspecified) showed an RP-LC retention time of 1000 s.
Under `Cc1cccc(-c2nnc(-c3cccc(S(=O)(=O)N(C)C)c3)o2)c1` stands 982 s; under `Cn1c(N2CCCC(C(=O)NCCCc3ccccc3)C2)cc(=O)n(C)c1=O` (stereo unspecified), 736 s.
For the compound `O=C(c1ccc2c(c1)CCC(=O)N2Cc1ccccc1)N1CCN(c2ccccc2F)CC1`, the RP-LC retention time amounted to 967 s.
Turning to `CCc1ccccc1NC(=O)C1CCc2sc(C(=O)N(C)C)cc2C1` (stereo unspecified), the RP-LC retention time stood at 738 s.
For `CC(C)NC(=O)c1ccc(OCC2CCN(C(=O)c3ccc(F)c(F)c3)CC2)cc1`, the RP-LC retention time was 873 s.
As to `CCn1nc(C)c(CCN(C)C(=O)Nc2cccc(C(=O)OC)c2)c1C`, the RP-LC retention time came to 644 s.
Consider `CCOC(=O)COc1cc(-c2ccccc2)nc2ccc(NC(=O)c3ccco3)cc12`, for which the RP-LC retention time turned out to be 743 s.
On to `Cc1c(Cl)cccc1NC(=O)CC1COc2ccccc2NC1=O` (stereo unspecified), for which the RP-LC retention time worked out at 756 s.
Compound `NC1CCN(O)C1=O` (stereo unspecified) registered an RP-LC retention time of 621 s.
For the compound `O=S(=O)(NCCc1csc(-c2cccc(F)c2)n1)c1ccccc1Cl`, the RP-LC retention time came out at 989 s.
Under `Cn1nc(C(=O)N2CCC(Nc3cccnc3)C2)c2ccccc21` (stereo unspecified) stands 781 s.
Regarding `C1=CC2(C=C1)OC21CCC2(C=CC3(C2)OC3C2CCCCC2)CC1` (stereo unspecified), the RP-LC retention time amounted to 798 s.
The compound `O=C(Nc1cccc(C(F)(F)F)c1)Nc1nc(-c2ccccc2)cs1` showed an RP-LC retention time of 1140 s.
`Cc1nc(CCNC(=O)C2CCC2)no1`: the RP-LC retention time was 608 s.
Regarding `Cc1cc(C(=O)Nc2ccc3c(c2)CCC(=O)N3C)no1`, the RP-LC retention time was found to be 686 s.
Next, `O=C(Cc1cn(Cc2ccccc2)c2ccccc12)NCc1cccs1`: 929 s; `COc1ccc(CNC(=O)N(Cc2ccsc2)CC(F)(F)F)cc1OC`: 812 s.
In turn, `Cc1cc(=O)n(CC(=O)N2CCc3ccccc32)c(N2CCCC2)n1` showed an RP-LC retention time of 664 s.
The compound `Fc1ccc(-c2csc(Nc3cccnc3)n2)cc1` showed an RP-LC retention time of 669 s.
On to `O=C(CCn1c(=O)c2cccn2c2cccnc21)N1CCN(c2ccccn2)CC1`, for which the RP-LC retention time amounted to 584 s.
In turn, `CCc1nnc2c(=O)n(CC(=O)N3CCN(c4ccccc4)CC3)c3cccnc3n12` gave an RP-LC retention time of 738 s.
`Cc1ccc(NC(=O)Cn2nc3c(Oc4cc(C)cc(C)c4)nccn3c2=O)cc1` returned an RP-LC retention time of 871 s.
In turn, `O=C(c1cc(-c2cccnc2)n[nH]1)N1CCN(C(=O)c2cccc3[nH]ccc23)CC1` yielded an RP-LC retention time of 598 s.
Turning to `Cc1ccc(Cn2c(N3CCCC(C(=O)NCc4ccccc4F)C3)nc3ccsc3c2=O)cc1` (stereo unspecified), the RP-LC retention time was found to be 981 s.
In turn, `CCc1ccc(NC(=O)CSc2nnc3c4cc(-c5ccc(F)cc5)nn4ccn23)cc1` had an RP-LC retention time of 984 s.
As for `CCc1cc(=O)n(CC(=O)Nc2cccc(Br)c2)c(N2CCOCC2)n1`, the RP-LC retention time came to 831 s.
Under `COc1ccc(-n2c(=O)n(C)c(=O)c3cc(C(=O)NCc4ccccc4OC)cnc32)cc1` stands 859 s; under `Cc1noc([C@@H]2CN(C(=O)c3occc3C)C[C@H]2CO)n1`, 642 s.
For the compound `Cc1ccc(N2CC(c3nc4ccccc4n3CC(=O)N(CC(C)C)CC(C)C)CC2=O)cc1` (stereo unspecified), the RP-LC retention time is 967 s.
Under `CNC(=O)[C@H]1O[C@@H](n2cnc3c(NCc4ccc(N)cc4)ncnc32)C(O)[C@H]1O` (stereo partly specified) stands 569 s.
`O=C(NCC1CC(=O)N(c2ccc3c(c2)OCO3)C1)Nc1ccccc1C(F)(F)F` (stereo unspecified) registered an RP-LC retention time of 717 s.
Next, `COc1ccc(NC(=O)c2cn(-c3cc(N4CCCC4)ncn3)cn2)cc1OC`: 748 s.
Under `COc1ccc(C2CCCN2C(=O)c2c(C)noc2C)cc1` (stereo unspecified) stands 746 s; under `CCOCCCNC(=O)c1ccc(CS(=O)c2ccccc2Cl)o1` (stereo unspecified), 704 s.
Take `CCCNC(=O)C1CCCN(c2nc3ncn(CC(=O)Nc4cc(F)cc(F)c4)c(=O)c3s2)C1` (stereo unspecified): the RP-LC retention time was 744 s.
As to `CCc1cccc(C)c1Nc1c(-c2ccc(O)c(OC)c2)nc2ncccn12`, the RP-LC retention time stood at 686 s.
As to `Cn1nnc2cc(C(=O)N3CCC(C(=O)NC4CCCc5ccccc54)CC3)ccc21` (stereo unspecified), the RP-LC retention time was found to be 728 s.
Consider `COc1ccc(Cl)cc1NC(=O)N1CCC2(CC1)N=C(c1cccc(F)c1)C(=O)N2`, for which the RP-LC retention time stood at 882 s.
Under `CCc1nnc2c(=O)n(CC(=O)NCc3ccc(F)cc3)c3cccnc3n12` stands 698 s; under `Cc1ccc2c(C(=O)N3CCN(Cc4ccccc4)CC3)cc(NC(=O)C(C)C)cc2n1`, 571 s.
The compound `CCC(C(=O)Nc1ccc(-c2nc(Cn3nc(C)cc3C)c(C)o2)cc1)c1ccccc1` (stereo unspecified) returned an RP-LC retention time of 1050 s.
With `O=C(Nc1ccc2c(c1)OCCO2)c1c(O)c2cccnc2n(-c2ccc(F)cc2)c1=O`, the RP-LC retention time was found to be 1120 s.
`CCN(C(=O)C(=O)c1c(C)[nH]c2ccccc12)c1ccccc1` displayed an RP-LC retention time of 809 s.
`NC(=O)COC1CCC12CCN(C(=O)c1ccc3c(c1)OCO3)CC2` (stereo unspecified) showed an RP-LC retention time of 662 s.
As for `Cn1nc(CN(C(=O)c2ccccc2F)c2ccccc2)c2c1CCN(S(C)(=O)=O)C2`, the RP-LC retention time worked out at 779 s.
For the compound `CCCn1nnc2cc(-c3noc(C4CC(=O)N(c5ccc(C)cc5)C4)n3)ccc21` (stereo unspecified), the RP-LC retention time was 964 s.
Turning to `CN(Cc1ccoc1)C(=O)Nc1ccc(F)cc1`, the RP-LC retention time was determined as 797 s.
Under `COCCNC(=O)c1cn2ccc(C)cc2n1` stands 616 s; under `CCCn1cc(CCNS(=O)(=O)c2cccc(C)c2)c2cccnc21`, 866 s.
`Cc1ccc(N2CCC(NC(=O)c3ccc(Br)o3)C2=O)cc1C` (stereo unspecified) showed an RP-LC retention time of 882 s.
As for `Cc1cc(Cl)ccc1S(=O)(=O)N1CC(c2nc(-c3ccncc3)no2)C1`, the RP-LC retention time was 931 s.
Next, `O=C1NCCCn2cc(S(=O)(=O)Nc3ccc(F)cc3Cl)cc21`: 650 s.
Take `COc1ccc(C)cc1NC(=O)c1nc(C)oc1C`: the RP-LC retention time was 1020 s.
Turning to `CCn1cnnc1C1CCCCN1C(=O)CCc1c[nH]c2ccccc12` (stereo unspecified), the RP-LC retention time was 697 s.
Compound `O=C(c1cccs1)N1CCC2(CC1)N=C(c1ccc(Cl)cc1)NO2` returned an RP-LC retention time of 844 s.
Under `COCCNC(=O)c1nc(-c2ccnc(N3CCCCCC3)c2)no1` stands 602 s; under `CCOc1ccc(NC(=O)N2CCCC(C)(C(=O)NCc3ccccc3)C2)cc1` (stereo unspecified), 859 s; under `CCc1ccc(NC(=O)C2CCN(C(=O)c3ncn4c3COC(c3ccc(F)cc3)C4)CC2)cc1` (stereo unspecified), 890 s.
`O=C(c1cccc(Br)c1)N1CCN(c2cc(-c3ccc(F)cc3)[nH]n2)CC1`: the RP-LC retention time stood at 864 s.
`Cc1cccc(-n2c(N3CCCC(C(=O)Nc4ccc(Cl)cc4)C3)nc3ccsc3c2=O)c1` (stereo unspecified) came in with an RP-LC retention time of 1080 s.
`Cn1c(=O)c2c3c(cnc2n(C)c1=O)C(=O)CC(c1cccc(Cl)c1)C3` (stereo unspecified) registered an RP-LC retention time of 1020 s.
In turn, `Nc1cc(C2CCN(S(=O)(=O)c3ccc(Cl)cc3)CC2)no1` displayed an RP-LC retention time of 826 s.
The compound `CCn1ccc2sc(C)c(C(=O)NCc3ccccc3Cl)c2c1=O` registered an RP-LC retention time of 879 s.
Under `Cc1ccc(NC(=O)Cn2cc3c(n2)CCC(C)C3)c(C)c1` (stereo unspecified) stands 987 s.
With `O=C(c1ccccc1)N1CCc2sc(C(=O)N3CCN(c4ccccn4)CC3)cc2C1`, the RP-LC retention time was determined as 608 s.
Take `COc1cccc(C(O)CN2CCN(c3ccccc3F)CC2)c1` (stereo unspecified): the RP-LC retention time was determined as 654 s.
`COCc1cc(=O)n(CC(=O)Nc2ccc(C)cc2)c(N)n1` showed an RP-LC retention time of 595 s.
In turn, `Cc1nn(CC(=O)NC2CC2)c(=O)c2c(-n3cccc3)n(-c3cccc(F)c3)nc12` gave an RP-LC retention time of 828 s.
Next, `Cc1ccc(-c2cc(=O)n(CC(=O)Nc3nccs3)cn2)cc1`: 691 s; `O=C1CN(Cc2ccc(F)cc2Cl)C2(CCCC2)CN1`: 668 s; `O=C(Cn1ncc2c(c1=O)N(C1CC1)C(=O)CS2)NCc1ccc2c(c1)OCO2`: 682 s.
Consider `O=C(NCc1cccs1)c1ccc2c(c1)OCCCO2`, for which the RP-LC retention time came to 791 s.
`COc1cc(NC(=O)C(C)Oc2ccc(=O)n(-c3ccc(F)cc3)n2)cc(OC)c1` (stereo unspecified) gave an RP-LC retention time of 794 s.
`COc1ccc(CN2C(=O)C3(CCOCC3)CC2c2nnnn2C(C)(C)C)c(OC)c1` (stereo unspecified): the RP-LC retention time turned out to be 734 s.
In the case of `CC(C)C(=O)N1CCCC(c2nc(CNC(=O)C3CCC3)cs2)C1` (stereo unspecified), the RP-LC retention time amounted to 679 s.
The compound `CCn1nccc1C(=O)N1CCCN(c2nnc3ccccn23)CC1` displayed an RP-LC retention time of 879 s.
In the case of `COc1ccc(-c2nnc(N3CCC(C(=O)Nc4ccc(OC)c(OC)c4)CC3)o2)cc1`, the RP-LC retention time was 748 s.

The values are drawn from the METLIN SMRT retention time set (Domingo-Almenara et al. 2019).
